# Data reported in ChEMBL document CHEMBL1150488 (1993).
# Tested on: Parabacteroides distasonis
# Experiment: Tested in vitro for its antibacterial activity against Bacteroides distasonis UC6518
# Format: functional
row,SMILES,MIC [µg/mL]
1,CC(=O)OC[C@@H](C)[C@H]1CN(C(C)=O)C1=O,> 256
2,CCC[C@@H]1C[C@@H](C(=O)N[C@@H]([C@H]2O[C@H](SC)[C@H](O)[C@@H](O)[C@H]2O)[C@H](C)Cl)N(C)C1 [CLINDAMYCIN],< 0.12
3,CCCC(=O)OC[C@H](C)[C@H]1CN(C(=O)CCC)C1=O,256

# Tested on: Bacteroides fragilis
# Experiment: Tested for zone of inhibition against Bacteroides fragilis UC6513 (1 mg/mL, 80 microL/12.7 mm)
# Format: functional
row,SMILES,Diameter of inhibition zone [mm]
1,CC(=O)OC[C@@H](C)[C@H]1CN(C(C)=O)C1=O,52
2,CCC[C@@H]1C[C@@H](C(=O)N[C@@H]([C@H]2O[C@H](SC)[C@H](O)[C@@H](O)[C@H]2O)[C@H](C)Cl)N(C)C1 [CLINDAMYCIN],30
3,CCCC(=O)OC[C@H](C)[C@H]1CN(C(=O)CCC)C1=O,41

# Tested on: Bacteroides fragilis
# Experiment: The compound was tested in vitro for its antibacterial activity against Bacteroides fragilis UC9370
# Format: functional
row,SMILES,MIC [µg/mL]
1,CC(=O)OC[C@@H](C)[C@H]1CN(C(C)=O)C1=O,256

# Tested on: Bacteroides fragilis
# Experiment: Tested in vitro for its antibacterial activity against Bacteroides fragilis UC9370 [clindamycin 1 micro g/mL]
# Format: functional
row,SMILES,MIC [µg/mL]
1,CCC[C@@H]1C[C@@H](C(=O)N[C@@H]([C@H]2O[C@H](SC)[C@H](O)[C@@H](O)[C@H]2O)[C@H](C)Cl)N(C)C1 [CLINDAMYCIN],< 0.12
2,CCCC(=O)OC[C@H](C)[C@H]1CN(C(=O)CCC)C1=O,256

# Tested on: Bacteroides thetaiotaomicron
# Experiment: The compound was tested in vitro for its antibacterial activity against Bacteroides thetaiotaomicron UC 6360
# Format: functional
row,SMILES,MIC [µg/mL]
1,CC(=O)OC[C@@H](C)[C@H]1CN(C(C)=O)C1=O,128

# Tested on: Bacteroides thetaiotaomicron
# Experiment: Tested in vitro for its antibacterial activity against Bacteroides thetaiotaomicron UC 9014[clindamycin 2 micro g/mL]
# Format: functional
row,SMILES,MIC [µg/mL]
1,CCC[C@@H]1C[C@@H](C(=O)N[C@@H]([C@H]2O[C@H](SC)[C@H](O)[C@@H](O)[C@H]2O)[C@H](C)Cl)N(C)C1 [CLINDAMYCIN],4
2,CCCC(=O)OC[C@H](C)[C@H]1CN(C(=O)CCC)C1=O,128

# Tested on: Prevotella melaninogenica
# Experiment: Tested in vitro for its antibacterial activity against Bacteroides melaninogenicus UC 6523
# Format: functional
row,SMILES,MIC [µg/mL]
1,CC(=O)OC[C@@H](C)[C@H]1CN(C(C)=O)C1=O,128
2,CCC[C@@H]1C[C@@H](C(=O)N[C@@H]([C@H]2O[C@H](SC)[C@H](O)[C@@H](O)[C@H]2O)[C@H](C)Cl)N(C)C1 [CLINDAMYCIN],< 0.12
3,CCCC(=O)OC[C@H](C)[C@H]1CN(C(=O)CCC)C1=O,64

# Tested on: Bacteroides thetaiotaomicron
# Experiment: The compound (1 mg/mL, 80 microL/6.5 mm) was tested for zone of inhibition against Bacteroides thetaiotaomicron UC 6360
# Format: functional
row,SMILES,Diameter of inhibition zone [mm]
1,CC(=O)OC[C@@H](C)[C@H]1CN(C(C)=O)C1=O,0

# Tested on: Clostridium perfringens
# Experiment: Tested in vitro for its antibacterial activity against Clostridium perfringens UC6509
# Format: functional
row,SMILES,MIC [µg/mL]
1,CC(=O)OC[C@@H](C)[C@H]1CN(C(C)=O)C1=O,> 256
2,CCC[C@@H]1C[C@@H](C(=O)N[C@@H]([C@H]2O[C@H](SC)[C@H](O)[C@@H](O)[C@H]2O)[C@H](C)Cl)N(C)C1 [CLINDAMYCIN],< 0.12
3,CCCC(=O)OC[C@H](C)[C@H]1CN(C(=O)CCC)C1=O,> 256

# Tested on: Clostridium perfringens
# Experiment: Tested for zone of inhibition against Clostridium perfringens UC6509
# Format: functional
row,SMILES,Diameter of inhibition zone [mm]
1,CC(=O)OC[C@@H](C)[C@H]1CN(C(C)=O)C1=O,36
2,CCC[C@@H]1C[C@@H](C(=O)N[C@@H]([C@H]2O[C@H](SC)[C@H](O)[C@@H](O)[C@H]2O)[C@H](C)Cl)N(C)C1 [CLINDAMYCIN],24
3,CCCC(=O)OC[C@H](C)[C@H]1CN(C(=O)CCC)C1=O,33

# Tested on: Escherichia coli
# Experiment: Tested in vitro for its antibacterial activity against Escherichia coli UC9379
# Format: functional
row,SMILES,MIC [µg/mL]
1,CC(=O)OC[C@@H](C)[C@H]1CN(C(C)=O)C1=O,> 512

# Tested on: Fusobacterium nucleatum
# Experiment: Tested in vitro for its antibacterial activity against Fusobacterium nucleatum UC6324
# Format: functional
row,SMILES,MIC [µg/mL]
1,CC(=O)OC[C@@H](C)[C@H]1CN(C(C)=O)C1=O,128
2,CCC[C@@H]1C[C@@H](C(=O)N[C@@H]([C@H]2O[C@H](SC)[C@H](O)[C@@H](O)[C@H]2O)[C@H](C)Cl)N(C)C1 [CLINDAMYCIN],< 0.12
3,CCCC(=O)OC[C@H](C)[C@H]1CN(C(=O)CCC)C1=O,256

# Tested on: Mycobacterium avium
# Experiment: The compound (1 mg/mL, 80 microL/12.7 mm) was tested for zone of inhibition against Mycobacterium avium UC159; Tr = trace
# Format: functional, organism-based
row,SMILES,Diameter of inhibition zone
1,CCC[C@@H]1C[C@@H](C(=O)N[C@@H]([C@H]2O[C@H](SC)[C@H](O)[C@@H](O)[C@H]2O)[C@H](C)Cl)N(C)C1 [CLINDAMYCIN],Trace

# Tested on: not listed separately
# Experiment: Tested in vitro for its antibacterial activity against Peptococcus variabilis UC6320
# Format: functional
row,SMILES,MIC [µg/mL]
1,CC(=O)OC[C@@H](C)[C@H]1CN(C(C)=O)C1=O,> 256
2,CCC[C@@H]1C[C@@H](C(=O)N[C@@H]([C@H]2O[C@H](SC)[C@H](O)[C@@H](O)[C@H]2O)[C@H](C)Cl)N(C)C1 [CLINDAMYCIN],1
3,CCCC(=O)OC[C@H](C)[C@H]1CN(C(=O)CCC)C1=O,256

# Tested on: Cutibacterium acnes
# Experiment: Tested in vitro for its antibacterial activity against Propionibacterium acnes UC6564
# Format: functional
row,SMILES,MIC [µg/mL]
1,CC(=O)OC[C@@H](C)[C@H]1CN(C(C)=O)C1=O,> 256
2,CCC[C@@H]1C[C@@H](C(=O)N[C@@H]([C@H]2O[C@H](SC)[C@H](O)[C@@H](O)[C@H]2O)[C@H](C)Cl)N(C)C1 [CLINDAMYCIN],< 0.12
3,CCCC(=O)OC[C@H](C)[C@H]1CN(C(=O)CCC)C1=O,64

# Tested on: Streptococcus pyogenes
# Experiment: Tsted in vitro for its antibacterial activity against Streptococcus pyogenes UC152
# Format: functional
row,SMILES,MIC [µg/mL]
1,CC(=O)OC[C@@H](C)[C@H]1CN(C(C)=O)C1=O,> 512

# Tested on: Staphylococcus aureus
# Experiment: Tested for zone of inhibition against Staphylococcus aureus UC3665 (1 mg/mL, 80 microL/12.7 mm)
# Format: functional
row,SMILES,Diameter of inhibition zone [mm]
1,CC(=O)OC[C@@H](C)[C@H]1CN(C(C)=O)C1=O,0
2,CCC[C@@H]1C[C@@H](C(=O)N[C@@H]([C@H]2O[C@H](SC)[C@H](O)[C@@H](O)[C@H]2O)[C@H](C)Cl)N(C)C1 [CLINDAMYCIN],0
3,CCCC(=O)OC[C@H](C)[C@H]1CN(C(=O)CCC)C1=O,0

# Tested on: Staphylococcus aureus
# Experiment: Tested for zone of inhibition against Staphylococcus aureus UC6685 (1 mg/mL, 80 microL/6.5 mm)
# Format: functional
row,SMILES,Diameter of inhibition zone [mm]
1,CC(=O)OC[C@@H](C)[C@H]1CN(C(C)=O)C1=O,0
2,CCC[C@@H]1C[C@@H](C(=O)N[C@@H]([C@H]2O[C@H](SC)[C@H](O)[C@@H](O)[C@H]2O)[C@H](C)Cl)N(C)C1 [CLINDAMYCIN],0

# Tested on: Staphylococcus aureus
# Experiment: The compound (1 mg/mL, 80 microL/6.5 mm) was tested for zone of inhibition against Staphylococcus aureus UC6685; Tr = trace
# Format: functional, organism-based
row,SMILES,Diameter of inhibition zone
1,CCCC(=O)OC[C@H](C)[C@H]1CN(C(=O)CCC)C1=O,Trace

# Tested on: Staphylococcus epidermidis
# Experiment: Tested for zone of inhibition against Staphylococcus epidermidis UC719 (1 mg/mL, 80 microL/6.5 mm)
# Format: functional
row,SMILES,Diameter of inhibition zone [mm]
1,CCC[C@@H]1C[C@@H](C(=O)N[C@@H]([C@H]2O[C@H](SC)[C@H](O)[C@@H](O)[C@H]2O)[C@H](C)Cl)N(C)C1 [CLINDAMYCIN],22

# Tested on: Staphylococcus epidermidis
# Experiment: The compound (1 mg/mL, 80 microL/6.5 mm) was tested for zone of inhibition against Staphylococcus epidermidis UC719 (14H -, H: Hazy zone)
# Format: functional
row,SMILES,Diameter of inhibition zone [mm]
1,CCCC(=O)OC[C@H](C)[C@H]1CN(C(=O)CCC)C1=O,14
